Patent publication US8492589B2, “Alkynyl phenyl derivative compounds for treating ophthalmic diseases and disorders” (Acucela Inc., priority 2007, dated 2013)

The compounds below were run against T1, visual cycle isomerase (Bovine RPE microsome membranes) (Bos taurus, UniProt Q28175) (assay: In vitro isomerase inhibition assay, bovine RPE microsome membranes). Details: bovine RPE microsomes; 11-cis retinol formation.
T1 construct: Bovine Retinal Pigment Epithelium (RPE) microsome membranes were the source of a visual cycle isomerase; from tissue; host or cells: bovine retinal pigment epithelium microsome membranes
T1 sequence (Q28175 2-533 limits assumed): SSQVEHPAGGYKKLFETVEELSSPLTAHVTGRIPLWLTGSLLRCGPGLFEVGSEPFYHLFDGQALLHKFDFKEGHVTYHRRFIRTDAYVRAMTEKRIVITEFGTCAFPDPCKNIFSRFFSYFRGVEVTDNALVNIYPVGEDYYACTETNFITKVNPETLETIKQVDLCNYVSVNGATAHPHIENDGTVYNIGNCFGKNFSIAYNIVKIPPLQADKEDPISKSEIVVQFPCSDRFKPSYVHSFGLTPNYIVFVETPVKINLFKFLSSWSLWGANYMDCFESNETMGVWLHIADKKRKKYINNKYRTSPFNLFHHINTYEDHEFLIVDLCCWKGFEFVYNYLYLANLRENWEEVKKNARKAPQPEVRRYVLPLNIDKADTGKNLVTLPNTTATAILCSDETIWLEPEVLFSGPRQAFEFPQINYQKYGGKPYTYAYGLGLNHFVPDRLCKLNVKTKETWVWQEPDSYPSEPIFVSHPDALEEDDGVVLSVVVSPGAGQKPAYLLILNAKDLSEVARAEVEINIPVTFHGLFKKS
Assay type: biochemical
Method: The capability of alkynyl phenyl-linked amine derivative compounds to inhibit the activity of a visual cycle isomerase was determined.
Bovine Retinal Pigment Epithelium (RPE) microsome membranes were the source of a visual cycle isomerase.
Crude RPE microsome extracts were thawed in a 37° C. water bath, and then immediately placed on ice. 50 ml crude RPE microsomes were placed into a 50 ml Teflon-glass homogenizer (Fisher Scientific, catalog no. 0841416M) on ice, powered by a hand-held DeWalt drill, and homogenized ten times up and down on ice under maximum speed. This process was repeated until the crude RPE microsome solution was homogenized. The homogenate was then subjected to centrifugation (50.2 Ti rotor (Beckman, Fullerton, Calif.), 13,000 RPM; 15360 Rcf) for 15 minutes at 4° C. The supernatant was collected and subjected to centrifugation at 42,000 RPM (160,000 Rcf; 50.2 Ti rotor) for 1 hour at 4° C. The supernatant was removed, and the pellets were suspended in 12 ml (final volume) cold 10 mM MOPS buffer, pH 7.0. The resuspended RPE membranes in 5 ml aliquots were homogenized in a glass-to-glass homogenizer (Fisher Scientific, catalog no. K885500-0021) to high homogeneity. Protein concentration was quantified using the BCA protein assay according to the manufacturer's protocol (Pierce, Rockford, Ill.). The homogenized RPE preparations were stored at −80° C.
Recombinant human apo cellular retinaldehyde-binding protein (CRALBP) was cloned and expressed according to standard methods in the molecular biology art (see Crabb et al., Protein Science 7:746-57 (1998); Crabb et al., J. Biol. Chem. 263:18688-92 (1988)). Briefly, total RNA was prepared from confluent ARPE19 cells (American Type Culture Collection, Manassas, Va.), cDNA was synthesized using an oligo(dT)12-18 primer, and then DNA encoding CRALBP was amplified by two sequential polymerase chain reactions (see Crabb et al., J. Biol. Chem. 263:18688-92 (1988); Intres, et al., J. Biol. Chem. 269:25411-18 (1994); GenBank Accession No. L34219.1). The PCR product was sub-cloned into pTrcHis2-TOPO TA vector according to the manufacturer's protocol (Invitrogen Inc., Carlsbad, Calif.; catalog no. K4400-01), and then the sequence was confirmed according to standard nucleotide sequencing techniques. Recombinant 6×His-tagged human CRALBP was expressed in One Shot TOP 10 chemically competent E. coli cells (Invitrogen), and the recombinant polypeptide was isolated from E. coli cell lysates by nickel affinity chromatography using nickel (Ni) Sepharose XK16-20 columns for HPLC (Amersham Bioscience, Pittsburgh, Pa.; catalog no. 17-5268-02). The purified 6×His-tagged human CRALBP was dialyzed against 10 mM bis-tris-Propane (BTP) and analyzed by SDS-PAGE. The molecular weight of the recombinant human CRALBP was approximately 39 kDal.
Alkkynyl phenyl-linked amine derivative compounds and control compounds were reconstituted in ethanol to 0.1 M. Ten-fold serial dilutions (10^−2, 10^−3, 10^−4, 10^−5, 10^−6 M) in ethanol of each compound were prepared for analysis in the isomerase assay.
The isomerase assay was performed in 10 mM bis-tris-propane (BTP) buffer, pH 7.5, 0.5% BSA (diluted in BTP buffer), 1 mM sodium pyrophosphate, 20 μM all-trans retinol (in ethanol), and 6 μM apo-CRALBP. The test compounds (2 μl) (final […] dilution of serial dilution stocks) were added to the above reaction mixture to which RPE microsomes were added. The same volume of ethanol was added to the control reaction (absence of test compound). Bovine RPE microsomes (9 μl) (see above) were then added, and the mixtures transferred to 37° C. to initiate the reaction (total volume=150 μl). The reactions were stopped after 30 minutes by adding methanol (300 μl). Heptane was added (300 μl) and mixed into the reaction mixture by pipetting. Retinoid was extracted by agitating the reaction mixtures, followed by centrifugation in a microcentrifuge. […]

Structure (SMILES)	IC50
CCCC(O)(C#Cc1cccc([C@H](O)CCN)c1)CCC [Compound 100, (R)-4-((3-(3-Amino-1-Hydroxypropyl)Phenyl)Ethynyl)Heptan-4-ol]	≤ 1 µM
CCCC(O)(C#Cc1cccc([C@@H](O)CCN)c1)CCC [Compound 101, (S)-4-((3-(3-Amino-1-Hydroxypropyl)Phenyl)Ethynyl)Heptan-4-ol]	≤ 1 µM
CCC(O)(C#Cc1cccc(CCCN)c1)CC [Example 1, 1-(3-(3-Aminopropyl)phenyl)-3-ethylpent-1-yn-3-ol]	≤ 1 µM
CCCC(O)(C#Cc1cccc(CCCN)c1)CCC [Example 2, 4-((3-(3-Aminopropyl)phenyl)ethynyl)heptan-4-ol]	≤ 1 µM
CCCC(C#Cc1cccc(CCCN)c1)(CCC)OC [Example 4, 3-(3-(3-Methoxy-3-propylhex-1-ynyl)phenyl)propan-1-amine]	≤ 1 µM
CC(C)(O)C#Cc1cccc(CCCN)c1 [Example 7, 4-(3-(3-Aminopropyl)phenyl)-2-methylbut-3-yn-2-ol]	≤ 1 µM
CCCC(O)C#Cc1cccc(CCCN)c1 (stereo not drawn) [Example 8, 1-(3-(3-Aminopropyl)phenyl)hex-1-yn-3-ol]	≤ 1 µM
NCCCc1cccc(C#CC2(O)CCCCC2)c1 [Example 11, 1-((3-(3-Aminopropyl)phenyl)ethynyl)cyclohexanol]	≤ 1 µM
CCCC(O)(C#Cc1cccc(OCCN)c1)CCC [Example 18, 4-((3-(2-Aminoethoxy)phenyl)ethynyl)heptan-4-ol]	≤ 1 µM
CCCC(O)(C#Cc1cccc(C(O)CCN)c1)CCC (stereo not drawn) [Example 19, 4-((3-(3-Amino-1-hydroxypropyl)phenyl)ethynyl)heptan-4-ol]	≤ 1 µM
NCCCc1cccc(C#CC2(O)CCCC2)c1 [Example 24, 1-((3-(3-Aminopropyl)phenyl)ethynyl)cyclopentanol]	≤ 1 µM
CC(C)(C)C(C)(O)C#Cc1cccc(CCCN)c1 (stereo not drawn) [Example 25, 1-(3-(3-Aminopropyl)phenyl)-3,4,4-trimethylpent-1-yn-3-ol]	≤ 1 µM
NCCCc1cccc(C#C[C@@H](O)c2ccccc2)c1 [Example 26, (S)-3-(3-(3-Aminopropyl)phenyl)-1-phenylprop-2-yn-1-ol]	≤ 10 µM
CCC(O)(C#Cc1cccc(OCCN)c1)CC [Example 27, 1-(3-(2-Aminoethoxy)phenyl)-3-ethylpent-1-yn-3-ol]	≤ 1 µM
CC(C)C(O)(C#Cc1cccc(OCCN)c1)C(C)C [Example 28, 1-(3-(2-Aminoethoxy)phenyl)-3-isopropyl-4-methylpent-1-yn-3-ol]	≤ 1 µM
NCCOc1cccc(C#CC2(O)CCCC2)c1 [Example 31, 1-((3-(2-Aminoethoxy)phenyl)ethynyl)cyclopentanol]	≤ 1 µM
CC(C)C(O)(C#Cc1cccc(CCCN)c1)C(C)C [Example 32, 1-(3-(3-Aminopropyl)phenyl)-3-isopropyl-4-methylpent-1-yn-3-ol]	≤ 1 µM
COc1ccccc1C#Cc1cccc(CCCN)c1 [Example 36, 3-(3-((2-Methoxyphenyl)Ethynyl)Phenyl)Propan-1-Amine]	≤ 1 µM
NCCCc1cccc(C#Cc2ccccc2)c1 [Example 37, 3-(3-(Phenylethynyl)phenyl)propan-1-amine]	≤ 1 µM
NCCCc1cccc(C#CC2CCCC2)c1 [Example 38, 3-(3-(Cyclopentylethynyl)phenyl)propan-1-amine]	≤ 1 µM

Structure (SMILES)	IC50
NCCC(O)c1cccc(C#CC2CCCC2)c1 (stereo not drawn) [Example 47, 3-Amino-1-(3-(cyclopentylethynyl)phenyl)propan-1-ol]	≤ 1 µM
NCCC(O)c1cccc(C#CCCCCO)c1 (stereo not drawn) [Example 50, 6-(3-(3-Amino-1-hydroxypropyl)phenyl)hex-5-yn-1-ol]	≤ 1 µM
NCCC(O)c1cccc(C#CCCO)c1 (stereo not drawn) [Example 51, 4-(3-(3-Amino-1-hydroxypropyl)phenyl)but-3-yn-1-ol]	≤ 1 µM
NCCC(O)c1cccc(C#CC2CCCCC2)c1 (stereo not drawn) [Example 52, 3-Amino-1-(3-(Cyclohexylethynyl)Phenyl)Propan-1-ol]	≤ 1 µM
COc1ccccc1C#Cc1cccc(C(O)CCN)c1 (stereo not drawn) [Example 54, 3-Amino-1-(3-((2-Methoxyphenyl)Ethynyl)Phenyl)Propan-1-ol]	≤ 1 µM
NCCOc1cccc(C#CC2(O)CCSCC2)c1 [Example 55, 4-((3-(2-Aminoethoxy)Phenyl)Ethynyl)Tetrahydro-2H-Thiopyran-4-ol]	≤ 1 µM
NCCOc1cccc(C#CC2(O)CCCCC2)c1 [Example 57, 1-((3-(2-Aminoethoxy)phenyl)ethynyl)cyclohexanol]	≤ 1 µM
NCCC(O)c1cccc(C#CC2(O)CCCCCC2)c1 (stereo not drawn) [Example 59, 1-((3-(3-Amino-1-hydroxypropyl)phenyl)ethynyl)cycloheptanol]	≤ 1 µM
CC(=O)NCCCc1cccc(C#CC2(O)CCCCC2)c1 [Example 60, N-(3-(3-((1-Hydroxycyclohexyl)Ethynyl)Phenyl)Propyl)Acetamide]	≤ 10 µM
NCCCc1cccc(C#Cc2ccccn2)c1 [Example 61, 3-(3-(Pyridin-2-ylethynyl)phenyl)propan-1-amine]	≤ 1 µM
NCCOc1cccc(C#Cc2cccnc2)c1 [Example 62, 2-(3-(Pyridin-3-ylethynyl)phenoxy)ethanamine]	≤ 10 µM
NCCCc1cccc(C#Cc2ccncc2)c1 [Example 63, 3-(3-(Pyridin-4-ylethynyl)phenyl)propan-1-amine]	≤ 10 µM
NCCC(O)c1cccc(C#CCCc2ccccc2)c1 (stereo not drawn) [Example 69, 3-Amino-1-(3-(4-phenylbut-1-ynyl)phenyl)propan-1-ol]	≤ 1 µM
NCCOc1cccc(C#CCCCCO)c1 [Example 74, 6-(3-(2-Aminoethoxy)phenyl)hex-5-yn-1-ol]	≤ 1 µM
NCCOc1cccc(C#CC2(O)CCCCCC2)c1 [Example 78, 1-((3-(2-aminoethoxy)phenyl)ethynyl)-cycloheptanol]	≤ 1 µM
NCCOc1cccc(C#CC2CCCC2)c1 [Example 79, 2-(3-(Cyclopentylethynyl)phenoxy)-ethanamine]	≤ 1 µM
NCCOc1cccc(C#CC2CCCCC2)c1 [Example 80, 2-(3-(Cyclohexylethynyl)phenoxy)ethanamine]	≤ 1 µM
NCCOc1cccc(C#Cc2ccccc2)c1 [Example 81, 2-(3-(Phenylethynyl)phenoxy)-ethanamine]	≤ 10 µM
NCCC(O)c1cccc(C#CC2(O)CCCCC2)c1 (stereo not drawn) [Example 99, 1-((3-(3-Amino-1-hydroxypropyl)phenyl)ethynyl)cyclohexanol]	≤ 1 µM
